ChEMBL document CHEMBL3879881, “Substituted pyrazolyl compounds for the treatment of inflammation” (2005)

Target: T1, Inhibitor of nuclear factor kappa-B kinase subunit beta (Homo sapiens, UniProt O14920)
T1 sequence (O14920 whole entry): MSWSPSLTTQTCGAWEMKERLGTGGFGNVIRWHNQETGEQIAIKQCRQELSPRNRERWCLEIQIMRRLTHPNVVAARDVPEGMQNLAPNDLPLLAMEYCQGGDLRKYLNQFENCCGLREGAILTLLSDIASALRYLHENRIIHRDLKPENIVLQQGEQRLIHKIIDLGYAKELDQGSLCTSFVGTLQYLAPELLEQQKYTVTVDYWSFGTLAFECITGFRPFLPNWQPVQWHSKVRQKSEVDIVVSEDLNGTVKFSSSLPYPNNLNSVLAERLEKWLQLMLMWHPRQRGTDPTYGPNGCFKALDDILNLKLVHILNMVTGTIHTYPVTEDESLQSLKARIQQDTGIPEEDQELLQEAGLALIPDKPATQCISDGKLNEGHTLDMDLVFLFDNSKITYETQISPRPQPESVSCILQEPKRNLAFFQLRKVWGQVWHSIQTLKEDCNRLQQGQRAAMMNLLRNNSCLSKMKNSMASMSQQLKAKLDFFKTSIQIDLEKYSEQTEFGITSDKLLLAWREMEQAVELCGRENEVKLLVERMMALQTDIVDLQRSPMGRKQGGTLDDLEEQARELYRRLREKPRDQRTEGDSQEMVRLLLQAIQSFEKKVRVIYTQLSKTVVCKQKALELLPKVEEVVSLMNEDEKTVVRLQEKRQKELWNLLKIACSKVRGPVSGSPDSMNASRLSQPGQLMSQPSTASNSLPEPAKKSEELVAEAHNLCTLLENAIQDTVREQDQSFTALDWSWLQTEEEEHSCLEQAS
Assay: Inhibition of human recombinant C-terminal FLAG-epitope-tagged IKK2 expressed in baculovirus using biotinylated IkappaBalpha peptide as substrate assessed as decrease in [gamma-33P]-ATP incorporation in substrate after 30 mins by scintillation counting method

Row | SMILES | IC50
1 | NC(=O)c1nn(-c2ccc3c(c2)OCO3)c2c1CCc1ccc(NC(=O)c3nc(Cl)ccc3Cl)cc1-2 | 1000 to 10000 nM
2 | CC(C)(C)C(=O)ONCCCCC(=O)Nc1ccc(-n2nc(C(N)=O)c3c2-c2cc(NC(=O)c4ccccc4Cl)ccc2CC3)cc1 | 1000 to 10000 nM
3 | CN(C)c1cccc2c(S(=O)(=O)Nc3ccc4c(c3)-c3c(c(C(N)=O)nn3-c3ccc(S(N)(=O)=O)cc3)CC4)cccc12 | 1000 to 10000 nM
4 | NC(=O)c1nn(-c2ccc(S(N)(=O)=O)cc2)c2c1CCc1ccc(NS(=O)(=O)c3ccc(Br)cc3)cc1-2 | 1000 to 10000 nM
5 | NC(=O)c1nn(-c2ccc(S(N)(=O)=O)cc2)c2c1CCc1ccc([N+](=O)[O-])cc1-2 | > 100000 nM
6 | CC1(C)OCC(COc2ccc(-n3nc(C(N)=O)c4c3-c3cc(NC(=O)c5cccnc5Cl)ccc3CC4)cc2)O1 (stereo unspecified) | 1000 to 10000 nM
7 | Cc1ccccc1C(=O)Nc1ccc2c(c1)-c1c(c(C(N)=O)nn1-c1ccc(S(N)(=O)=O)cc1)CC2 | ≤ 1000 nM
8 | NC(=O)c1nn(-c2ccc(S(N)(=O)=O)cc2)c2c1CCc1ccc(NS(=O)(=O)C(F)(F)F)cc1-2 | 10000 to 100000 nM
9 | NC(=O)c1nn(-c2ccc(OCC(O)CO)cc2)c2c1CCc1ccc(NC(=O)c3ccncc3Cl)cc1-2 (stereo unspecified) | ≤ 1000 nM
10 | NC(=O)c1nn(-c2ccc(S(N)(=O)=O)cc2)c2c1CCc1ccc(NS(=O)(=O)c3ccc(F)cc3)cc1-2 | 1000 to 10000 nM
11 | NC(=O)c1nn(-c2ccc(S(N)(=O)=O)cc2)c2c1CCc1ccc(NS(=O)(=O)c3cc(C(F)(F)F)cc(C(F)(F)F)c3)cc1-2 | 1000 to 10000 nM
12 | CC(=O)c1ccc(C(=O)Nc2ccc3c(c2)-c2c(c(C(N)=O)nn2-c2ccc4c(c2)OCO4)CC3)cc1 | 1000 to 10000 nM
13 | NC(=O)c1nn(-c2ccc(S(N)(=O)=O)cc2)c2c1CCc1ccc(NS(=O)(=O)c3cccc4ccccc34)cc1-2 | 10000 to 100000 nM
14 | NC(=O)c1nn(-c2ccc(F)cc2)c2c1CCc1ccc(NC(=O)c3cc(CN4CCOCC4)ncc3Cl)cc1-2 | ≤ 1000 nM
15 | CCCS(=O)(=O)c1ccc(-n2nc(C(N)=O)c3c2-c2cc(NC(=O)c4cc(N)ccc4Cl)ccc2CC3)cc1 | ≤ 1000 nM
16 | CN(C)S(=O)(=O)c1ccc(-n2nc(C(N)=O)c3c2-c2cc(N)ccc2CC3)cc1 | 1000 to 10000 nM
17 | NC(=O)c1nn(-c2ccc(-c3cccc(N)c3)cc2)c2c1CCc1ccc(NC(=O)c3ccccc3Cl)cc1-2 | 1000 to 10000 nM
18 | NC(=O)c1nn(-c2ccc(C(F)(F)F)cc2)c2c1CCc1ccc(N)cc1-2 | 1000 to 10000 nM
19 | CN1CCN(c2cc(C(=O)Nc3ccc4c(c3)-c3c(c(C(N)=O)nn3-c3ccc(F)cc3)CC4)c(Cl)cn2)CC1 | ≤ 1000 nM
20 | CC1Cc2c(C(N)=O)nn(-c3ccc(N)cc3F)c2-c2cc(NC(=O)c3ccncc3Cl)ccc21 (stereo unspecified) | ≤ 1000 nM
21 | NC(=O)c1nn(-c2ccc(S(N)(=O)=O)cc2)c2c1CCc1ccc(NC(=O)c3ccccc3C(F)(F)F)cc1-2 | ≤ 1000 nM
22 | CC(=O)Oc1cccc(C(=O)Nc2ccc3c(c2)-c2c(c(C(N)=O)nn2-c2ccc(S(C)(=O)=O)cc2)CC3)c1C | 1000 to 10000 nM
23 | NC(=O)c1nn(-c2ccc(S(N)(=O)=O)cc2)c2c1CCc1ccc(NC(=O)c3ccc(F)cc3)cc1-2 | ≤ 1000 nM
24 | CC(C)N1CCN(c2cc(C(=O)Nc3ccc4c(c3)-c3c(c(C(N)=O)nn3-c3ccc(F)cc3)CC4)c(Cl)cn2)CC1 | ≤ 1000 nM

Row | SMILES | IC50
25 | NC(=O)c1nn(-c2ccc(S(N)(=O)=O)cc2)c2c1CCc1ccc(NS(=O)(=O)c3ccc(Cl)cc3Cl)cc1-2 | 1000 to 10000 nM
26 | NC(=O)c1nn(-c2ccc(S(N)(=O)=O)cc2)c2c1CCc1ccc(NC(=O)c3cccc(Cl)c3Cl)cc1-2 | ≤ 1000 nM
27 | CC(C)C(=O)Nc1ccc2c(c1)-c1c(c(C(N)=O)nn1-c1ccc(S(N)(=O)=O)cc1)CC2 | 1000 to 10000 nM
28 | NC(=O)c1nn(-c2ccc(S(N)(=O)=O)cc2)c2c1CCc1ccc(NC(=O)C3CCCCC3)cc1-2 | 1000 to 10000 nM
29 | NC(=O)c1nn(-c2ccc(S(N)(=O)=O)cc2)c2c1CCc1ccc(NS(=O)(=O)c3ccc(Br)cc3F)cc1-2 | 1000 to 10000 nM
30 | NC(=O)c1nn(-c2ccc3c(c2)OCO3)c2c1CCc1ccc(NC(=O)c3cc(Cl)ncc3Cl)cc1-2 | ≤ 1000 nM
31 | CC(C)(O)/C=C/c1ccc(-n2nc(C(N)=O)c3c2-c2cc(NC(=O)c4cccnc4Cl)ccc2CC3)cc1 | 1000 to 10000 nM
32 | CS(=O)(=O)c1ncc(Cl)c(C(=O)Nc2ccc3c(c2)-c2c(c(C(N)=O)nn2-c2ccc4c(c2)OCO4)CC3)n1 | ≤ 1000 nM
33 | Cc1ccccc1C(=O)Nc1ccc2c(c1)-c1c(c(C(N)=O)nn1-c1ccc(Br)cc1)CC2 | ≤ 1000 nM
34 | CNCC(=O)Nc1ccc2c(c1)-c1c(c(C(N)=O)nn1-c1ccc3c(c1)OCO3)CC2 | 1000 to 10000 nM
35 | NC(=O)c1nn(-c2ccc(-n3cccc3)cc2)c2c1CCc1ccc(NC(=O)c3ccccc3Cl)cc1-2 | 1000 to 10000 nM
36 | CN(C)C(=O)/C=C/c1ccc(-n2nc(C(N)=O)c3c2-c2cc(NC(=O)c4cccnc4Cl)ccc2CC3)cc1 | 1000 to 10000 nM
37 | CS(=O)(=O)Nc1ccc2c(c1)-c1c(c(C(N)=O)nn1-c1cccc(O)c1)CC2 | 1000 to 10000 nM
38 | NC(=O)c1nn(-c2ccc(S(N)(=O)=O)cc2)c2c1CCc1ccc(NC(=O)Nc3ccccc3)cc1-2 | 1000 to 10000 nM
39 | Cc1cc(Cl)ncc1C(=O)Nc1ccc2c(c1)-c1c(c(C(N)=O)nn1-c1ccc3c(c1)OCO3)CC2 | ≤ 1000 nM
40 | CN(C)CCNS(=O)(=O)c1ccc(-n2nc(C(N)=O)c3c2-c2cc(NC(=O)c4ccccc4Cl)ccc2CC3)cc1 | ≤ 1000 nM
41 | Cc1ncccc1C(=O)Nc1ccc2c(c1)-c1c(c(C(N)=O)nn1-c1ccc3c(c1)OCO3)CC2 | 1000 to 10000 nM
42 | CSc1ncc(Cl)c(C(=O)Nc2ccc3c(c2)-c2c(c(C(N)=O)nn2-c2ccc4c(c2)OCO4)CC3)n1 | ≤ 1000 nM
43 | NC(=O)c1nn(-c2ccc(Br)cc2)c2c1CCc1ccc(N)cc1-2 | 1000 to 10000 nM
44 | NC(=O)c1nn(-c2ccc(S(N)(=O)=O)cc2)c2c1CCc1ccc(NC(=O)C3CCCC3)cc1-2 | 1000 to 10000 nM
45 | CS(=O)(=O)c1ccc(-n2nc(C(N)=O)c3c2-c2cc(N)ccc2CC3)cc1 | 1000 to 10000 nM
46 | NC(=O)c1nn(-c2ccc(OCC(O)CO)cc2)c2c1CCc1ccc(NC(=O)c3cc(N)ccc3Cl)cc1-2 (stereo unspecified) | ≤ 1000 nM
47 | C[C@H]1CN(c2cc(C(=O)Nc3ccc4c(c3)-c3c(c(C(N)=O)nn3-c3ccc(F)cc3)CC4)c(Cl)cn2)CCN1C | ≤ 1000 nM
48 | Cc1c(O)cccc1C(=O)Nc1ccc2c(c1)-c1c(c(C(N)=O)nn1-c1ccc(S(C)(=O)=O)cc1)CC2 | ≤ 1000 nM

Row | SMILES | IC50
49 | NC(=O)c1nn(-c2ccc(S(N)(=O)=O)cc2)c2c1CCc1ccc(NC(=O)C3CC3)cc1-2 | 1000 to 10000 nM
50 | CC1Cc2c(C(N)=O)nn(-c3ccc(F)cc3)c2-c2cc(NC(=O)c3cc(N4CCN(C)CC4)ccc3Cl)ccc21 (stereo unspecified) | ≤ 1000 nM
51 | COc1cccc(C(=O)Nc2ccc3c(c2)-c2c(c(C(N)=O)nn2-c2ccc(S(N)(=O)=O)cc2)CC3)c1 | ≤ 1000 nM
52 | NC(=O)c1nn(-c2cccc(Cl)c2)c2c1CCc1ccc(NC(=O)c3ccccc3Cl)cc1-2 | ≤ 1000 nM
53 | C=CCN(CC=C)S(=O)(=O)c1ccc(-n2nc(C(N)=O)c3c2-c2cc(N)ccc2CC3)cc1 | 1000 to 10000 nM
54 | COc1cccc(-n2nc(C(N)=O)c3c2-c2cc(NC(=O)c4ccccc4Cl)ccc2CC3)c1 | 1000 to 10000 nM
55 | NC(=O)c1nn(-c2ccc(S(N)(=O)=O)cc2)c2c1CCc1ccc(NS(=O)(=O)c3ccc(-c4ccccc4)cc3)cc1-2 | 1000 to 10000 nM
56 | NC(=O)c1nn(-c2cc(F)cc(F)c2)c2c1CCc1ccc(NC(=O)c3cccc(Cl)c3Cl)cc1-2 | 1000 to 10000 nM
57 | CS(=O)(=O)c1ccc(-n2nc(C(N)=O)c3c2-c2cc(NC(=O)c4cn[nH]c4)ccc2CC3)cc1 | 1000 to 10000 nM
58 | NC(=O)c1nn(-c2ccc(S(N)(=O)=O)cc2)c2c1CCc1ccc(NS(=O)(=O)Cc3ccccc3)cc1-2 | 1000 to 10000 nM
59 | C#CCN(CC#C)S(=O)(=O)c1ccc(-n2nc(C(N)=O)c3c2-c2cc(NC(=O)c4ccccc4Cl)ccc2CC3)cc1 | 1000 to 10000 nM
60 | NC(=O)c1nn(-c2ccc(S(N)(=O)=O)cc2)c2c1CCc1ccc(NC(=O)c3ccccc3F)cc1-2 | ≤ 1000 nM
61 | CCS(=O)(=O)Nc1ccc2c(c1)-c1c(c(C(N)=O)nn1-c1ccc(S(N)(=O)=O)cc1)CC2 | ≤ 1000 nM
62 | NC(=O)c1nn(-c2ccc(S(N)(=O)=O)cc2)c2c1CCc1ccc(NS(=O)(=O)c3cccc4nonc34)cc1-2 | 1000 to 10000 nM
63 | NC(=O)c1nn(-c2ccc(F)cc2)c2c1CCc1ccc(NC(=O)c3ccncc3)cc1-2 | 1000 to 10000 nM
64 | C#Cc1ccc(-n2nc(C(N)=O)c3c2-c2cc(NC(=O)c4cccnc4Cl)ccc2CC3)cc1 | 1000 to 10000 nM
65 | NC(=O)c1nn(-c2ccc(S(N)(=O)=O)cc2)c2c1CCc1ccc(NS(=O)(=O)c3ccc(Cl)c(Cl)c3)cc1-2 | 1000 to 10000 nM
66 | NC(=O)c1nn(-c2ccc3c(c2)OCO3)c2c1CCc1ccc(NC(=O)c3ccc(Cl)c(N)c3)cc1-2 | 1000 to 10000 nM
67 | NCc1cc(C(=O)Nc2ccc3c(c2)-c2c(c(C(N)=O)nn2-c2ccc4c(c2)OCO4)CC3)c(Cl)cn1 | ≤ 1000 nM
68 | NC(=O)c1nn(-c2ccc(/C=C/C(=O)NCc3ccccc3)cc2)c2c1CCc1ccc(NC(=O)c3ccccc3Cl)cc1-2 | 1000 to 10000 nM
69 | CC1(C)OCC(COc2ccc(-n3nc(C(N)=O)c4c3-c3cc(NC(=O)c5ccncc5Cl)ccc3CC4)cc2)O1 (stereo unspecified) | 1000 to 10000 nM
70 | NC(=O)c1nn(-c2ccc(S(N)(=O)=O)cc2)c2c1CCc1ccc(N)cc1-2 | ≤ 1000 nM
71 | NC(=O)c1nn(-c2ccc(Cl)cc2)c2c1CCc1ccc(NC(=O)c3ccccc3Cl)cc1-2 | ≤ 1000 nM
